Structures are written as SMILES.

Common to all, as to assay: KinomeScan profiling
Common to all, as to format: binding

The target in one experiment is T1, TAOK2 (Homo sapiens, UniProt Q9UL54).
T1 construct: purchased KinomeScan® (panel service)
T1 sequence (Q9UL54 1-1235): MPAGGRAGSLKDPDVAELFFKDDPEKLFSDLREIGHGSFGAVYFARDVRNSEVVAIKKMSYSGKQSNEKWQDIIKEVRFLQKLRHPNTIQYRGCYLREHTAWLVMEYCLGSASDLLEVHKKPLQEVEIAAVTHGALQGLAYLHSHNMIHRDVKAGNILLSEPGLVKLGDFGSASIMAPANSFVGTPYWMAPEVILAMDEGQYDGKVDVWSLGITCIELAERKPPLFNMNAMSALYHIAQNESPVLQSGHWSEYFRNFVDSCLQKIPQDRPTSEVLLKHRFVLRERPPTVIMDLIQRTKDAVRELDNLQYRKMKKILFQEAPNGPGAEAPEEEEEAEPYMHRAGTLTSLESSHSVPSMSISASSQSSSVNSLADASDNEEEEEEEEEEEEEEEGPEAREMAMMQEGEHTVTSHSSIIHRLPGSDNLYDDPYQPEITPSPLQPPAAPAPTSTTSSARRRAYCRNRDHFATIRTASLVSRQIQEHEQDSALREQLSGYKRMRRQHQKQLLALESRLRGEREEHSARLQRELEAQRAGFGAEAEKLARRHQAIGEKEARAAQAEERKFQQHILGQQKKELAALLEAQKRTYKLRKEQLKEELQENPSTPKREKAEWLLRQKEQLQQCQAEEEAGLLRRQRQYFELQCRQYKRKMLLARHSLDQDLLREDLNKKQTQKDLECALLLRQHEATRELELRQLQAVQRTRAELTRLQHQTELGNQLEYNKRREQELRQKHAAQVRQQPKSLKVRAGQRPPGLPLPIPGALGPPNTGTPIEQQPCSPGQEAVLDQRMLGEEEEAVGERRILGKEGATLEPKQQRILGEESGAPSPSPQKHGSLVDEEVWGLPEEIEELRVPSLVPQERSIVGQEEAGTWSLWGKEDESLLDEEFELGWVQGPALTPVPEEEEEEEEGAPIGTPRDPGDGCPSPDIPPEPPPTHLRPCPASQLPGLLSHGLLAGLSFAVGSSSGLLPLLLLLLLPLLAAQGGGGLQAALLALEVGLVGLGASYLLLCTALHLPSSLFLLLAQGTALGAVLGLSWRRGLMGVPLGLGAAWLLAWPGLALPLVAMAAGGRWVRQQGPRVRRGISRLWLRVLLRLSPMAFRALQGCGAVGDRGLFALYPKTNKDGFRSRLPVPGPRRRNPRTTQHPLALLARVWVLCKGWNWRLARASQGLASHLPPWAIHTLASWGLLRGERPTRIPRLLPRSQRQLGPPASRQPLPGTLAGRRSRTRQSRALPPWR
The following applies: TAOK2, 1 μM; read-out: % control. In outline:
(§1)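 Percent-of-control values derive from RLU, calculated as (test − positive)/(negative − positive) × 100, where DMSO defines 100% and a positive control compound defines 0%. Each compound was tested at 1 μM in the 468-kinase panel; sub-35% readings indicate activity.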

A further experiment addresses CDK5 (Homo sapiens, UniProt Q00535). Conditions: CDK5, 1 μM; read-out: % control. In outline:
as §1

The target of the next experiment is FLT1 (Homo sapiens, UniProt P17948). Conditions: FLT1, 1 μM; read-out: % control. In outline:
as §1

The target in a further experiment is MST3 (Homo sapiens, UniProt Q9Y6E0). Conditions: MST3, 1 μM; read-out: % control. In outline: as §1
MST3, sequence (Q9Y6E0 whole entry): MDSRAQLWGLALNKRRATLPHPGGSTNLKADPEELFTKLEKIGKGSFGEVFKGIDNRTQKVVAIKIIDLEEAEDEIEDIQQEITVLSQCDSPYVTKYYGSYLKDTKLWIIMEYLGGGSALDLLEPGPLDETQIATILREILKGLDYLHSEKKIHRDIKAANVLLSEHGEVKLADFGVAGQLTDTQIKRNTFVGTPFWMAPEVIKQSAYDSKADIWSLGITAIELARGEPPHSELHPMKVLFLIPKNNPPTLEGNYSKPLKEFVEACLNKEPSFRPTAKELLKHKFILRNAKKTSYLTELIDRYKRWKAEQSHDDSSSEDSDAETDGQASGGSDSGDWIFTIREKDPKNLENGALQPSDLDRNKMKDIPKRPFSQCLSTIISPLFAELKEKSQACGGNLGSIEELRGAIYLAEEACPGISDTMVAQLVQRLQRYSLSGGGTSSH
For another experiment, the target named is CDK4-cyclinD1 (Homo sapiens, UniProt P11802). Conditions: CDK4-cyclinD1, 1 μM; read-out: % control. In outline:
as §1

In the next experiment the target is CHEK2 (Homo sapiens, UniProt O96017). Conditions: CHEK2, 1 μM; read-out: % control. In outline:
as §1

The target of another experiment is T2, CAMK4 (Homo sapiens, UniProt Q16566).
T2 sequence (Q16566 1-473): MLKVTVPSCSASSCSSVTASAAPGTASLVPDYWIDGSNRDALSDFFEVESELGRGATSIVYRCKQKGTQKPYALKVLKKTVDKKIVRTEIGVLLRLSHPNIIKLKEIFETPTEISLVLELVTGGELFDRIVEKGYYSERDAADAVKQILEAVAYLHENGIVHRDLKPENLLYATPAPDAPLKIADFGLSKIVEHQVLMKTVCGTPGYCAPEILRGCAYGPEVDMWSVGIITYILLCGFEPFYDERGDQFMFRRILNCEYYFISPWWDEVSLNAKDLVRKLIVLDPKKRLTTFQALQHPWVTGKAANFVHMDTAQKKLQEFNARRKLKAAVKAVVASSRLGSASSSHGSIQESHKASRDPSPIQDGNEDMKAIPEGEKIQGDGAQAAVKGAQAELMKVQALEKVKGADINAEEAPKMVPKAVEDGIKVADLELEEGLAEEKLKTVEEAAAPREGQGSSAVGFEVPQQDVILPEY
Conditions: CAMK4, 1 μM; read-out: % control. In outline:
as §1

FLT1, sequence (P17948 27-1338): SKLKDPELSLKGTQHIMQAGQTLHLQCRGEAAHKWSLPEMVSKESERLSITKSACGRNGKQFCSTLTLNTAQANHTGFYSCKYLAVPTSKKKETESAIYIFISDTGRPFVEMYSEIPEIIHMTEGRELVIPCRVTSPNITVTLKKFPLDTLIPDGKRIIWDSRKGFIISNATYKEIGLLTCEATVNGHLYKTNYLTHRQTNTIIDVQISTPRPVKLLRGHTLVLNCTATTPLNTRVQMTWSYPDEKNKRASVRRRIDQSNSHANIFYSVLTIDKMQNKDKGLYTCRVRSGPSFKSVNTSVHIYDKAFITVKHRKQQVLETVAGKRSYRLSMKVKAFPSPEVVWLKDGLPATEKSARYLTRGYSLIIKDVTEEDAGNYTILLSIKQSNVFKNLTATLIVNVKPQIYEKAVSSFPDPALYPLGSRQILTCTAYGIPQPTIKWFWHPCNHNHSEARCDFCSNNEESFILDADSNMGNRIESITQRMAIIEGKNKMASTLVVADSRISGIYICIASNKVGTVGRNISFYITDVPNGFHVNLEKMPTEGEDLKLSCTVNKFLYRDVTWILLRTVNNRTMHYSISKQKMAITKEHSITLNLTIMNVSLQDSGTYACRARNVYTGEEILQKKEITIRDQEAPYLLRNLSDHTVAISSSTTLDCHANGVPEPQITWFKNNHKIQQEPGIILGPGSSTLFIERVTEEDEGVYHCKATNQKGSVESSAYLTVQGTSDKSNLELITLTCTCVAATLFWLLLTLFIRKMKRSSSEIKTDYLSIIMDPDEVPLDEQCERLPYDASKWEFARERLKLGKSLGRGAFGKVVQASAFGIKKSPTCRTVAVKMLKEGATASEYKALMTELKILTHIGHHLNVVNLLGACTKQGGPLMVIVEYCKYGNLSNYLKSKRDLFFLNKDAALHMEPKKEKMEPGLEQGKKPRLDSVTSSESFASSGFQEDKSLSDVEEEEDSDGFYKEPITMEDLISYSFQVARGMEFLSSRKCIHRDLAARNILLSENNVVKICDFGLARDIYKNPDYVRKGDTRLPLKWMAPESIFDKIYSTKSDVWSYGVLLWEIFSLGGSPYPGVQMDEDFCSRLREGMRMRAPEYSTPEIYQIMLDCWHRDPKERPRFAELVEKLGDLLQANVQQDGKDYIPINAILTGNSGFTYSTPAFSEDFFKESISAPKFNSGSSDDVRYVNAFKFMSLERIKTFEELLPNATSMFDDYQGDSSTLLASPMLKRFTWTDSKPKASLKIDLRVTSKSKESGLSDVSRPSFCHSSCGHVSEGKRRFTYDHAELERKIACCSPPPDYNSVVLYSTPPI
CDK5, sequence (Q00535 whole entry): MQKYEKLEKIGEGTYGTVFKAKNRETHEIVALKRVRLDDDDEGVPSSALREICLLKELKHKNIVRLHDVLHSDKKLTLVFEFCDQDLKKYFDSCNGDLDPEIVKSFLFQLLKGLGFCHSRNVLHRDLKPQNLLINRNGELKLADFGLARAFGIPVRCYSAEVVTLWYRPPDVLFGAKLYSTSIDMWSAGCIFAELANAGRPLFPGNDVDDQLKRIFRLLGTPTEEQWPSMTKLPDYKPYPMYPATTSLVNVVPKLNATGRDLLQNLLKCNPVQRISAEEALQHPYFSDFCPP
CHEK2, sequence (O96017 whole entry): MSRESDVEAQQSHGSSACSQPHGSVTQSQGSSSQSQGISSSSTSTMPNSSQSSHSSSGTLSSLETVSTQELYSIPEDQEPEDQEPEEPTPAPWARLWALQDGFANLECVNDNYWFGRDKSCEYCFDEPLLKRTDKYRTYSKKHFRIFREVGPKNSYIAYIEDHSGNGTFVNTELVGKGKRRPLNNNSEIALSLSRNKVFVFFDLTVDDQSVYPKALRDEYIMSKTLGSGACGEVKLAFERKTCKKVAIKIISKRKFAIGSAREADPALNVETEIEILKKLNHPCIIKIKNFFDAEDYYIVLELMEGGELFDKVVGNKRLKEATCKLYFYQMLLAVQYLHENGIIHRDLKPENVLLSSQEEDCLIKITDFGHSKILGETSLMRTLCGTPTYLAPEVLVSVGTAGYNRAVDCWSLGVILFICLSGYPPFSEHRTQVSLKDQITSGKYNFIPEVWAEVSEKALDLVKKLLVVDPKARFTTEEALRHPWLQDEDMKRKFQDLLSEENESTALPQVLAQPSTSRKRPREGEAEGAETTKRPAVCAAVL
CDK4-cyclinD1, sequence (P11802 whole entry): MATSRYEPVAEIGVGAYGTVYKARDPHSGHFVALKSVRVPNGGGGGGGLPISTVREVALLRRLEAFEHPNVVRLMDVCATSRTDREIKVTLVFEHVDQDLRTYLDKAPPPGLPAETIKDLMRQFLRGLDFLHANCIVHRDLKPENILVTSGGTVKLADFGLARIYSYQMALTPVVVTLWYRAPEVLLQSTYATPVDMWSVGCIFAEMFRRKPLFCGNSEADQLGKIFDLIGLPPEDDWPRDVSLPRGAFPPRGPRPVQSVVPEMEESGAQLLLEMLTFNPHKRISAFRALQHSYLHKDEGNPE
CDK4-cyclinD1, sequence (P24385 whole entry partner): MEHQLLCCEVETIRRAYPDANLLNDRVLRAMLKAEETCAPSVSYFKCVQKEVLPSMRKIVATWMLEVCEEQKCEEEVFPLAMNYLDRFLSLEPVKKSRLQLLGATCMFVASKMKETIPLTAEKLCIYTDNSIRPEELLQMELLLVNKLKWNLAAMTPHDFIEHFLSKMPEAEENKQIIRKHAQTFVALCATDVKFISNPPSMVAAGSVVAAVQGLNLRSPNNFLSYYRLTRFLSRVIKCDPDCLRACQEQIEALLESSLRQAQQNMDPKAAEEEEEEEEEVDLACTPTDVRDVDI

Regarding `CNc1c(-c2ccc(C(=O)N3CCC(N4CCOCC4)CC3)cc2)cnc2[nH]cc(Cl)c12` [Compound 96, (4-(3-chloro-4-(methylamino)-1H-pyrrolo[2,3-b]pyridin-5-yl)phenyl)(4-morpholinopiperidin-1-yl)methanone], the remaining binding at 1 µM on TAOK2 worked out at 69%; at CDK5, 97%; at FLT1, 33%; on MST3 it was 74%; at CDK4-cyclinD1, 73%; on CHEK2 it was 22%. In addition, on CAMK4, the remaining binding at 1 µM amounted to 100%.
For the compound `O=C(c1ccc(-c2cnc3[nH]cc(Cl)c3c2NC2CCCC2)cc1)N1CCC(N2CCOCC2)CC1` [Compound 101, (4-(3-chloro-4-(cyclopentylamino)-1H-pyrrolo[2,3-b]pyridin-5-yl)phenyl)(4-morpholinopiperidin-1-yl)methanone], the remaining binding at 1 µM came out at 81% on TAOK2; 94% at CDK5; 51% on FLT1; 86% on MST3; 100% at CDK4-cyclinD1; 92% on CHEK2. Also, the remaining binding at 1 µM at CAMK4 was determined as 87%.
Regarding `CNc1c(-c2cnn([C@H]3CCN(C(C)=O)C[C@@H]3F)c2)cnc2[nH]cc(Cl)c12` [Compound 77, 1-((3S,4S)-4-(4-(3-chloro-4-(methylamino)-1H-pyrrolo[2,3-b]pyridin-5-yl)-1H-pyrazol-1-yl)-3-fluoropiperidin-1-yl)ethan-1-one], the remaining binding at 1 µM on TAOK2 was 69%; on CDK5, 91%; on FLT1, 21%; at MST3, 72%; at CDK4-cyclinD1, 74%; at CHEK2 it was 56%. The remaining binding at 1 µM on CAMK4 is 100%.

Source of the values: US12275731B2, “Azaindole inhibitors of wild-type and mutant forms of LRRK2” (DANA-FARBER CANCER INSTITUTE, INC., priority 2018, dated 2025).
